Experiments:
[1] = tested on: NFκB; test: NFκB reporter assay (THP1-XBlue-MD2-CD14 cells) stimulated with LPS, SEAP readout; details: peptide 50 μg/ml, LPS 5 ng/ml, overnight (FIG. 1)
[2] = tested on: mice, lethal endotoxemia; test: Mouse model of lethal endotoxemia (LPS 15 mg/kg); type: in vivo
Description: FIG. 27A: The mice were treated with SP16 or vehicle and challenged with a lethal dose of LPS (15 mg/kg) and assessed for survival over 72 hours.

Row | Substance | NFκB activity (NFκB inducible SEAP in supernatant) [1] | survival between 30 and 42 hours [2] [%] | survival by 72-hrs ([2]; p<0.001 vs. vehicle) [%]
1 | V K F N K P F V F L M I E Q N T K (VKFNKPFVFLMIEQNTK; listed as Homo sapiens) [SP16, 24] | capable of reducing NFκB activity | 100 | 60
2 | V K F N K P F V F L M (VKFNKPFVFLM; listed as Homo sapiens) [SP20] | did not have an inhibitory effect |  | 
3 | V R F N R P F L (VRFNRPFL; peptide derivative) [SP31] | anti-inflammatory activity of the peptide was lost |  | 
4 | R R R V R F N R P F L R R R (RRRVRFNRPFLRRR; peptide derivative) [SP32] | could not be restored with the Poly arginine flanks |  | 
5 | R R R V K F N K P F V F L M R R R (RRRVKFNKPFVFLMRRR; peptide derivative) [SP22] | NFκB activity was significantly reduced |  | 
6 | RRRVKFNKPFVFLMIEQNTKRRR (RRRVKFNKPFVFLMIEQNTKRRR; peptide derivative) [SP21] | NFkB inhibition increased as well relative to SP16 |  | 

Reference: patent US11779630B2, “Peptides and methods of using the same” (SERPIN PHARMA, LLC, priority 2020, dated 2023)
